Measured values reported in US9518026B2, “5-aminopyrazole-4-carboxamide inhibitors of CDPK1 from T. gondii and C. parvum” (UNIVERSITY OF WASHINGTON THROUGH ITS CENTER FOR …, priority 2013, dated 2016).
Read-outs that look alike come from different tables or passages of the source.

Assays:
[1] = Cytotoxicity against CRL8155 cell line; format: cell-based; settings: human, CRL8155 cells (lymphoblast, spleen), read-out: Cytotoxicity (CRL8155) EC50
Src = Src (Homo sapiens (Human), UniProt P12931); assay: biochemical
CpCDPK1 = CpCDPK1 (Cryptosporidium parvum (strain Iowa II), UniProt A3FQ16); assay: biochemical; settings: Table 1; KinaseGlo, Syntide 2 peptide substrate; read-out: CpCDPK1 IC50
TgCDPK1 = TgCDPK1 (Toxoplasma gondii, UniProt Q9BJF5); assay: biochemical; settings: read-out: TgCDPK1 IC50
[2] = Table 1, KinaseGlo, Syntide 2 peptide substrate

Sequence of Src (P12931 270-523): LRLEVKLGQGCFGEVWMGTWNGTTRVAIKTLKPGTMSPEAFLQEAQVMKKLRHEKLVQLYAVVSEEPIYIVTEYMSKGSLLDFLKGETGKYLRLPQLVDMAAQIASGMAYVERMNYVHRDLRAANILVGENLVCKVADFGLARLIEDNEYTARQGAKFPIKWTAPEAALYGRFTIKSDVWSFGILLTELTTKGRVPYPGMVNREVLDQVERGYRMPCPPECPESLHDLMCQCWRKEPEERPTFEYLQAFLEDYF
Sequence of CpCDPK1 (A3FQ16 1-538): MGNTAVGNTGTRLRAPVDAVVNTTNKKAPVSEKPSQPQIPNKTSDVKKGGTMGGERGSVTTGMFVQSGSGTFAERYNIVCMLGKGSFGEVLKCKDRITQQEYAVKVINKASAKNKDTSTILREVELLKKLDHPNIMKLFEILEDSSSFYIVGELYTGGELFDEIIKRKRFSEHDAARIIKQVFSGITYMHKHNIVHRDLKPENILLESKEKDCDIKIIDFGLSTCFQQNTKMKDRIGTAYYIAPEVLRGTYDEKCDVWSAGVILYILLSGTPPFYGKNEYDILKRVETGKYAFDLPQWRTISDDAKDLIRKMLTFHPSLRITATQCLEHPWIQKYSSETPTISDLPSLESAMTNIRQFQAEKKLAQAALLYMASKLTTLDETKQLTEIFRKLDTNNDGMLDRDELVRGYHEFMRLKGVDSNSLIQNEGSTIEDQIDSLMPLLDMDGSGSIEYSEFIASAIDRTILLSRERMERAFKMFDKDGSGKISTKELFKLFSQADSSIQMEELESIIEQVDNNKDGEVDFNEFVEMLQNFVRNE
Sequence of TgCDPK1 (Q9BJF5 1-507): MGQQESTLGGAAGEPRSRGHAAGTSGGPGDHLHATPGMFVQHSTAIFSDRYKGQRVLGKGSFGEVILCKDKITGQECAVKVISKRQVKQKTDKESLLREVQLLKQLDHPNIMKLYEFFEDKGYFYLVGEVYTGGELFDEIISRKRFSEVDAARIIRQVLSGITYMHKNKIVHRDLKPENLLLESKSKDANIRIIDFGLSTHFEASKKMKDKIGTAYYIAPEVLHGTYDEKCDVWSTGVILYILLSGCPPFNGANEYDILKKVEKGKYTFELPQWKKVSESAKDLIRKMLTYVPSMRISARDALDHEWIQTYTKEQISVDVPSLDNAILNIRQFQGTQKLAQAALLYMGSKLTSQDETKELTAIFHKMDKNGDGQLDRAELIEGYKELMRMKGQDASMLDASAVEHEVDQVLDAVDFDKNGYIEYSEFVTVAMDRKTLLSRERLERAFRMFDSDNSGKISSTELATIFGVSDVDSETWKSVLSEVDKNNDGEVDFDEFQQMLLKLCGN

Structure (SMILES) | IC50 (CpCDPK1) | IC50 (TgCDPK1; [2]) | further results
CCOc1ccc2cc(-c3nn(C4CCC4)c(N)c3C(N)=O)cnc2c1 [Compound 1652] | – | – | EC50 ([1]; Table 3): > 40000 nM; IC50 (Src): > 10 µM
CCOc1ccc2cc(-c3nn(C4CCCC4)c(N)c3C(N)=O)cnc2c1 [Compound 1605, 5-amino-1-cyclopentyl-3-(7-ethoxyquinolin-3-yl)-1H-pyrazole-4-carboxamide] | 4 nM | – | EC50 ([1]; Table 3): > 40000 nM; IC50 (Src; Src IC50 (μM), Table 3): > 10 µM
CCOc1ccc2cc(-c3nn(C4CCOC4)c(N)c3C(N)=O)cnc2c1 (centres unmarked) [Compound 1612, 5-amino-3-(7-ethoxyquinolin-3-yl)-1-(tetrahydrofuran-3-yl)-1H-pyrazole-4-carboxamide] | 3 nM | 10 nM | –
CCOc1ccc2cc(-c3nn(CC(C)(C)CO)c(N)c3C(N)=O)ccc2n1 [Compound 1622, 5-amino-3-(2-ethoxyquinolin-6-yl)-1-(3-hydroxy-2,2-dimethylpropyl)-1H-pyrazole-4-carboxamide] | – | – | EC50 ([1]; Table 3): > 40000 nM
CCOc1ccc2cc(-c3nn(CCOC)c(N)c3C(=O)NCCOC)cnc2c1 [Compound 1595, 5-amino-3-(7-ethoxyquinolin-3-yl)-N,1-bis(2-methoxyethyl)-1H-pyrazole-4-carboxamide] | 398 nM | 723 nM | –
CC(C)(C)n1nc(-c2cnc3cc(F)ccc3c2)c(C(N)=O)c1N [Compound 1545, 5-amino-1-tert-butyl-3-(7-fluoroquinolin-3-yl)-1H-pyrazole-4-carboxamide] | – | – | EC50 ([1]; Table 3): > 40000 nM; IC50 (Src; Src IC50 (μM), Table 3): > 30 µM
NC(=O)c1c(-c2ccc3ccccc3c2)nn(CCO)c1N [Compound 22, 5-amino-1-(2-hydroxyethyl)-3-(naphthalen-2-yl)-1H-pyrazole-4-carboxamide] | 21 nM | – | IC50 (TgCDPK1): 15 nM
CCOc1ccc2cc(-c3nn(C4(C)CCCCC4)c(N)c3C(N)=O)cnc2c1 [Compound 1640, 5-amino-3-(7-ethoxyquinolin-3-yl)-1-(1-methylcyclohexyl)-1H-pyrazole-4-carboxamide] | 6 nM | 9 nM | –
CC(C)(C)Cn1nc(-c2ccc3ccccc3c2)c(C(N)=O)c1N [Compound 19, 5-amino-3-(naphthalen-2-yl)-1-neopentyl-1H-pyrazole-4-carboxamide] | – | – | EC50 ([1]; Table 2): > 40000 nM
CCOc1ccc2cc(-c3nn(C4CCCCCC4)c(N)c3C(N)=O)cnc2c1 [Compound 1604, 5-amino-1-cycloheptyl-3-(7-ethoxyquinolin-3-yl)-1H-pyrazole-4-carboxamide] | 2 nM | – | EC50 ([1]; Table 3): > 40000 nM; IC50 (Src; Src IC50 (μM), Table 3): > 10 µM
CC(C)(C)n1nc(-c2ccc3oc(=O)ccc3c2)c(C(N)=O)c1N [Compound 34, 5-amino-1-(tert-butyl)-3-(2-oxo-2H-chromen-6-yl)-1H-pyrazole-4-carboxamide] | 200 nM | – | IC50 (TgCDPK1): 32 nM
CCOc1ccc2ncc(-c3nn(C4CCCCC4)c(N)c3C(N)=O)cc2c1 [Compound 1655, 5-amino-1-cyclohexyl-3-(6-ethoxyquinolin-3-yl)-1H-pyrazole-4-carboxamide] | > 2000 nM | > 2000 nM | –
CC(C)(C)n1nc(-c2cnc3cc(OC4CCC4)ccc3c2)c(C(N)=O)c1N [Compound 1630, 5-amino-1-(tert-butyl)-3-(7-cyclobutoxyquinolin-3-yl)-1H-pyrazole-4-carboxamide] | 4 nM | 3 nM | –
Cc1nc2cc(-c3nn(C(C)(C)C)c(N)c3C(N)=O)ccc2n1C [Compound 32, 5-amino-1-(tert-butyl)-3-(1,2-dimethyl-1H-benzo[d]imidazol-5-yl)-1H-pyrazole-4-carboxamide] | > 3000 nM | > 3000 nM | –
CCOc1ccc2cc(-c3nn(CC(C)(C)CO)c(N)c3C(N)=O)cnc2c1 [Compound 1596, 5-amino-3-(7-ethoxyquinolin-3-yl)-1-(3-hydroxy-2,2-dimethylpropyl)-1H-pyrazole-4-carboxamide] | – | – | EC50 ([1]; Table 3): > 40000 nM; IC50 (Src; Src IC50 (μM), Table 3): > 10 µM
CCOc1ccc2cc(-c3nn(CCOC)c(N)c3C(N)=O)cnc2c1 [Compound 1594, 5-amino-3-(7-ethoxyquinolin-3-yl)-1-(2-methoxyethyl)-1H-pyrazole-4-carboxamide] | 172 nM | 321 nM | –
CCOc1ccc2cc(-c3nn(C(C)C(C)O)c(N)c3C(N)=O)cnc2c1 (centres unmarked) [Compound 1611, 5-amino-3-(7-ethoxyquinolin-3-yl)-1-(3-hydroxybutan-2-yl)-1H-pyrazole-4-carboxamide] | 6 nM | 19 nM | –
NC(=O)c1c(-c2ccc3ccccc3c2)nn(C2CCCCC2)c1N [Compound 17, 5-amino-1-cyclohexyl-3-(naphthalen-2-yl)-1H-pyrazole-4-carboxamide] | 16 nM | – | IC50 (TgCDPK1): 11 nM
CCOc1ccc2cc(-c3nn(C(C)C(C)(C)O)c(N)c3C(N)=O)cnc2c1 (centres unmarked) [Compound 1626, 5-amino-3-(7-ethoxyquinolin-3-yl)-1-(3-hydroxy-3-methylbutan-2-yl)-1H-pyrazole-4-carboxamide] | 13 nM | 30 nM | –
Cn1ncc2cc(-c3nn(C(C)(C)C)c(N)c3C(N)=O)ccc21 [Compound 30, 5-amino-1-(tert-butyl)-3-(1-methyl-1H-indazol-5-yl)-1H-pyrazole-4-carboxamide] | 150 nM | – | IC50 (TgCDPK1): 32 nM
CCOc1ccc2cc(-c3nn(C(C(C)C)C(C)C)c(N)c3C(N)=O)cnc2c1 [Compound 1607, 5-amino-1-(2,4-dimethylpentan-3-yl)-3-(7-ethoxyquinolin-3-yl)-1H-pyrazole-4-carboxamide] | 20 nM | 99 nM | –
CC(C)Oc1ccc2cc(-c3nn(C(C)(C)C)c(N)c3C(N)=O)cnc2c1 [Compound 1569, 5-amino-1-(tert-butyl)-3-(7-isopropoxyquinolin-3-yl)-1H-pyrazole-4-carboxamide] | 5 nM | – | EC50 ([1]; Table 3): > 40000 nM
CCOc1ccc2ncc(-c3nn(C(C)(C)C)c(N)c3C(N)=O)cc2c1 [Compound 1654, 5-amino-1-(tert-butyl)-3-(6-ethoxyquinolin-3-yl)-1H-pyrazole-4-carboxamide] | > 2000 nM | > 2000 nM | –
CCOc1ccc2cc(-c3nn(C(C)C4CC4)c(N)c3C(N)=O)cnc2c1 (centres unmarked) [Compound 1631, 5-amino-1-(1-cyclopropylethyl)-3-(7-ethoxyquinolin-3-yl)-1H-pyrazole-4-carboxamide] | 5 nM | 10 nM | –
CCn1nc(-c2ccc3ccccc3c2)c(C(N)=O)c1N [Compound 12, 5-amino-1-ethyl-3-(naphthalen-2-yl)-1H-pyrazole-4-carboxamide] | 11 nM | – | IC50 (TgCDPK1): 8 nM
CCOc1ccc2cc(-c3nn(CC4CCN(C)CC4)c(N)c3C(N)=O)ccc2c1 [Compound 8, 5-amino-3-(6-ethoxynaphthalen-2-yl)-1-((1-methylpiperidin-4-yl)methyl)-1H-pyrazole-4-carboxamide] | 9 nM | – | IC50 (TgCDPK1): 11 nM
CC(C)(C)n1nc(-c2cnc3cc(OC(F)(F)F)ccc3c2)c(C(N)=O)c1N [Compound 1565, 5-amino-1-tert-butyl-3-(7-(trifluoromethoxy)quinolin-3-yl)-1H-pyrazole-4-carboxamide] | 38 nM | 31 nM | –
CCOc1ccc2cc(-c3nn(C(C)C)c(N)c3C(N)=O)ccc2n1 [Compound 1661, 5-amino-3-(2-ethoxyquinolin-6-yl)-1-isopropyl-1H-pyrazole-4-carboxamide] | 2 nM | 5 nM | –
